Laboratory results from US8518953B2, “Aminopyrimidines useful as inhibitors of protein kinases” (Vertex Pharmaceuticals Incorporated, priority 2007, dated 2013).

Key:
GSK-3β (AA 1-420) = molecular target: T1, GSK-3β (AA 1-420) (Homo sapiens, UniProt P49841); test: GSK-3 Inhibition Assay (standard coupled enzyme system); format: biochemical; conditions: 20 μM ATP, 300 μM peptide, 20 nM GSK-3β, 30° C.
T1 construct: GSK-3β (AA 1-420)
Procedure: Compounds of the present invention were screened for their ability to inhibit GSK-3β (AA 1-420) activity using a standard coupled enzyme system (Fox et al., Protein Sci. 1998, 7, 2249). Reactions were carried out in a solution containing 100 mM HEPES (pH 7.5), 10 mM MgCl2, 25 mM NaCl, 300 μM NADH, 1 mM DTT and 1.5% DMSO. Final substrate concentrations in the assay were 20 μM ATP (Sigma Chemicals, St Louis, Mo.) and 300 μM peptide (American Peptide, Sunnyvale, Calif.). Reactions were carried out at 30° C. and 20 nM GSK-3β. Final concentrations of the components of the coupled enzyme system were 2.5 mM phosphoenolpyruvate, 300 μM NADH, 30 μg/ml pyruvate kinase and 10 μg/ml lactate dehydrogenase.
An assay stock buffer solution was prepared containing all of the reagents listed above with the exception of ATP and the test compound of the present invention. The assay stock buffer solution (175 μl) was incubated in a 96 well plate with 5 μl of the test compound of the present invention at final concentrations spanning 0.002 μM to 30 μM at 30° C. for 10 min. […] Rates of reaction were obtained using a Molecular Devices Spectramax plate reader (Sunnyvale, Calif.) over 10 min at 30° C. The Ki values were determined from the rate data as a function of inhibitor concentration.

[1] = test system: E16 rat hippocampal or cortical neurons; test: Axonal Branching Assay; format: cell-based
Procedure: Compounds are tested for the ability to enhance axonal branching in E16 rat hippocampal or cortical neurons. 1 mg/ml stock of PDL is diluted into 100 μg/ml in DI water. The glass coverslips are coated for at least 1 hour at 37° C. prior to doing the dissection. PDL is aspirated and the plates are rinsed with PBS and air-dried in hood. Cortical or hippocampal lobes are combined with 9 mL of Base media (Neurobasal+Pen/Strep) and put on ice. 1 mL of 10× trypsin solution is added and the mixture is swirled gently. The tissue is then digested via incubation in a 37° C. waterbath for 20 minutes. After 20 minutes, 10 μl/ml DNase (100 μL DNase) is added and the mixture is incubated for another 5 minutes. The cells are spun at 1000 rpm for 1 minute. The enzyme solution is then removed without removing any of the brain fragments sitting on the bottom. The solid is washed 3 times with Wash media (Neurobasal+10% and Pen/Strep). […] The cells are counted in a hemacytometer and seeded at 5000-10000 cells/well in a 24 well plate with glass coverslip inserts coated with PDL. […] Images are captured at 10× and 20× on an upright microscope and axonal branching is determined by quantification of area under threshold fluorescence of neurofilament Alexa 488 per cell. Dendritic branching is determined by quantification of area under threshold fluorescence of MAP2 Alexa 568 per cell. […]

T1 sequence (P49841 whole entry, species assumed, the tested form may be a part): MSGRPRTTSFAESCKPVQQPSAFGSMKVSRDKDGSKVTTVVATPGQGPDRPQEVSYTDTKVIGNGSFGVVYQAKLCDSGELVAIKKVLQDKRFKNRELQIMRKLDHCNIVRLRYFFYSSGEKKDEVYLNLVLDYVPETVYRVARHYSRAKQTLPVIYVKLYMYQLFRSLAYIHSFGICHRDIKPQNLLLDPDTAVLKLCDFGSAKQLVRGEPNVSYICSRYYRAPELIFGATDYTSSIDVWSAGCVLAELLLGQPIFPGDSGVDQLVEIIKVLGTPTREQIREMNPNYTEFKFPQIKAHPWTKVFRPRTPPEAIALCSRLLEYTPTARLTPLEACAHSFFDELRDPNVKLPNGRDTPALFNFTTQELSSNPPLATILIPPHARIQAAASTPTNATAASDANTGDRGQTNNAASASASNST

`Cc1nc(-c2ccccc2Cl)nc(Nc2n[nH]c3ncc(F)cc23)c1C` [Compound I-1, N-(2-(2-chlorophenyl)-5,6-dimethylpyrimidin-4-yl)-5-fluoro-1H-pyrazolo[3,4-b]pyridin-3-amine] was tested, and the Ki (GSK-3β (AA 1-420)) was under 5 nM, the “axonal and dendritic branching” value ([1]; 10 nM, 7 days) was “increased axonal and dendritic branching” and the axon growth ([1]; concentrations that have been shown to induce β-catenin) was “axon growth was inhibited”.
